The values that follow come from US4735955A, “2-substituted cycloheptoimidazole derivatives and anti-ulcerative agents containing the same” (Kotobuki Seiyaku Co., Ltd., priority 1985, dated 1988).

The test system of experiment [1] is gastric-acid secretion. Put plainly: Gastric acid antisecretory activity, pylorus-ligated rat (method of Shay). The following applies: intraduodenal, 50 mg/kg intraduodenally just after pylorus ligation, 4 hours after ligation, read-out: Total Acid Inhibition. Format: in vivo. As for the experimental part: Gastric acid antisecretory activities
Inhibitory activities of gastric-acid secretion are determined by the method of Shay (Gastroenterology 26, 906). Rats are fasted for 24 hours and pylorus ligation is carried out under light anesthesia.
Drug is given intraduodenally just after the ligation. Four hours after ligation, the stomach of the rat is removed and the acidity of gastric juice is determined.

Experiment [2] addresses T1, (H^+,K^+)ATPase (Sus scrofa, UniProt P19156).
T1 construct: (H^+,K^+)ATPase is prepared from the pig gastric mucosa; from tissue; host or cells: pig gastric mucosa
In words: Inhibition of (H^+,K^+)ATPase activity (method of Fellenius). Format: biochemical. The settings on record: 3 × 10^-4 M, pig gastric mucosa, pH 7.4, 37° C. The procedure:
Inhibition of (H^+,K^+)ATPase activities. Inhibition of (H^+,K^+) ATPase activities is determined by the method of F. Fellenius et al., Nature 290, pp. 159~161, 1981. (H^+,K^+)ATPase is prepared from the pig gastric mucosa and the test compound is incubated with […], 40 mM of tris-buffer (pH 7.4), 2 mM of MgCl2 and 10 mM of KCl at 37° C. Inorganic phosphate occurring by stimulation of ATPase is determined.

Experiment [3] is described as follows: Cytoprotective activity, inhibition of ethanol-induced ulcer (method of Robert). Format: in vivo. The following applies: rat, 100 mg/kg perorally 30 minutes before 1 ml absolute ethanol, stomach removed one hour after ethanol. As for the experimental part: Cytoprotective Activities
Inhibitory activities of ethanol-induced ulcer are determined by the method of Robert (Gastroenterology 77, 433~443). Rats are fasted for 24 hours and are given 1 ml of absolute ethanol perorally. One hour after administration of ethanol, the stomach of the rat is removed. The length of each ulcer occurring in the grandulor stomach is determined and each ulcer in one rat is accounted as the ulcer-index. The test compounds are given perorally 30 minutes before absolute ethanol administration.

T1 sequence (P19156 2-1034 limits assumed): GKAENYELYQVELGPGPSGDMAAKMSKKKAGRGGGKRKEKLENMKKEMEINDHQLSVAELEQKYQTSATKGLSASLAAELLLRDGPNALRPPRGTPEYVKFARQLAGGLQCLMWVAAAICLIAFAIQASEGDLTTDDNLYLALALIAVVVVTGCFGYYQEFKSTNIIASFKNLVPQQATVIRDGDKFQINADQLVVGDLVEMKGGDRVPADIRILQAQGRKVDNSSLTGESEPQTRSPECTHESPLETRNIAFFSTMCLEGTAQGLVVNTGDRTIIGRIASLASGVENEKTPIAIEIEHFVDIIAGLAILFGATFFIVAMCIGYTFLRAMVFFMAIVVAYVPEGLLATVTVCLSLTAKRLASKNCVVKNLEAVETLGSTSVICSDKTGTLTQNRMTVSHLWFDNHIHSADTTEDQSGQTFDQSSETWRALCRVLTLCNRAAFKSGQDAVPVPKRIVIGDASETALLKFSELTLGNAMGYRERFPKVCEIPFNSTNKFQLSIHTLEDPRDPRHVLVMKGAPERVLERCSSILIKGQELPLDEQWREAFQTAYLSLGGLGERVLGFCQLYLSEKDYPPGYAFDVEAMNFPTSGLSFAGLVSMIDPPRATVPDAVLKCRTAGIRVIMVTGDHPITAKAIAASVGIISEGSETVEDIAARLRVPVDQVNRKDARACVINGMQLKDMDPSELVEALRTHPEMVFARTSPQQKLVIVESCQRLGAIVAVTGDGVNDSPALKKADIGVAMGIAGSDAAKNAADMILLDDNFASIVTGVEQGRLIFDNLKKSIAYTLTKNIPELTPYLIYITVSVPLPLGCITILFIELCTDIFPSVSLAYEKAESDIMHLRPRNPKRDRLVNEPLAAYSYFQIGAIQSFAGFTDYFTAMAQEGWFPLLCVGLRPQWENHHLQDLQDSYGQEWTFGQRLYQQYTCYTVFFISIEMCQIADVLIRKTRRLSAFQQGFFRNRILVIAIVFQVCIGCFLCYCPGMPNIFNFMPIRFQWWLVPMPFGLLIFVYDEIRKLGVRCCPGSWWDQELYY
T1 sequence (P18434 whole entry partner): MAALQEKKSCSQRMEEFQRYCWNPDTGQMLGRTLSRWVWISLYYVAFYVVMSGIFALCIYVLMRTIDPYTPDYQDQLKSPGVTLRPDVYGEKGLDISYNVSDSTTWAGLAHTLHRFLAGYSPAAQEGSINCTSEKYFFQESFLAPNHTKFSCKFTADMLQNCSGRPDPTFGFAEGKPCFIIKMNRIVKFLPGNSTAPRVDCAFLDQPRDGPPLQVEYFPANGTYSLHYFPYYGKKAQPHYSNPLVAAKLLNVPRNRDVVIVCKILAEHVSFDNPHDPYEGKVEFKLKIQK

For the molecule `Cc1ccc(C[S+]([O-])c2nc3cccccc-3n2)cc1` (centres unmarked) [Compound 45, 2-(p-Tolyl)methylthio-cycloheptoimidazole-S-oxide], the inhibition in vivo at 50 mg/kg in experiment [1] was 90.7%.

In the case of `c1ccc2nc(SCCn3cnc4ccccc43)nc-2cc1` [Compound 3, 2-(1-Benzimidazolyl)ethylthio-cycloheptoimidazole], the inhibition in vivo at 50 mg/kg in experiment [1] worked out at 22.4%.

With `c1ccc(CSc2nc3cccccc-3n2)cc1` [Compound 31, 2-(Phenyl)methylthio-cycloheptoimidazole], in experiment [1], the inhibition in vivo at 50 mg/kg amounted to 78.9%.

Consider `c1ccc2nc(SCc3ccn[nH]3)nc-2cc1` [Compound 10, 2-(5-Pyrazolyl)methylthio-cycloheptoimidazole], for which, in experiment [1], the inhibition in vivo at 50 mg/kg stood at 54.4%.

In general, inhibition refers to the percentage by which the read-out fell short of the control. Higher therefore signals a response far below the control. As for `COc1ccc(C[S+]([O-])c2nc3cccccc-3n2)cc1` (centres unmarked) [Compound 47, 2-(p-Methoxyphenyl)methylthio-cycloheptoimidazole-S-oxide], in experiment [2], the inhibition at 300 µM amounted to 32%. For the same molecule, the inhibition in vivo at 50 mg/kg in experiment [1] came out at 90.7%.

Turning to `Clc1ccc(CSc2nc3cccccc-3n2)cc1` [Compound 28, 2-(p-Chlorophenyl)methylthio-cycloheptoimidazole], the inhibition in vivo at 50 mg/kg in experiment [1] is 39.1%.

Regarding `c1ccc2nc(SCc3ccncc3)nc-2cc1` [Compound 12, 2-(4-Pyridyl)methylthio-cycloheptoimidazole], in experiment [1], the inhibition in vivo at 50 mg/kg was 66.8%.

For the molecule `Cc1nc(-c2ccccc2)c(CSc2nc3cccccc-3n2)o1` [Compound 37, 2-(2-Methyl-4-Phenyloxazole-5-yl)methylthio-cycloheptoimidazole], the inhibition at 300 µM in experiment [2] came to 48%.

Consider `COc1ccc(C[S+]([O-])c2nc3cccccc-3n2)c(OC)c1OC` (centres unmarked) [Compound 44, 2-(2,3,4-Trimethoxyphenyl)methylthio-cycloheptoimidazole-S-oxide], for which at 300 µM the inhibition in experiment [2] was 25%. Moreover, the inhibition in vivo at 50 mg/kg in experiment [1] is 89.8%.

In the case of `CN(C)c1ccc(C[S+]([O-])c2nc3cccccc-3n2)cc1` (centres unmarked) [Compound 49, 2-(p-Dimethylaminophenyl)methylthio-cycloheptoimidazole-S-oxide], the inhibition in vivo at 50 mg/kg in experiment [1] worked out at 33.6%.

With `Nc1ccccc1CSc1nc2cccccc-2n1` [Compound 57, 2-(o-aminophenyl)methylthio-cycloheptoimidazol], in experiment [2], 300 µM produced 46% inhibition. The inhibition in vivo at 50 mg/kg in experiment [1] was 92.9%.

As to `[O-][S+](Cc1c[nH]cn1)c1nc2cccccc-2n1` (centres unmarked) [Compound 51, 2-(4-imidazolyl)methylthio-cycloheptoimidazole-S-oxide], the inhibition in vivo at 50 mg/kg in experiment [1] stood at 63.6%.

In the case of `Cc1oncc1CSc1nc2cccccc-2n1` [Compound 34, 2-(5-Methylisoxazole-4-yl)methylthio-cycloheptoimidazole], the inhibition in vivo at 50 mg/kg in experiment [1] was 70.1%.

Consider `Cc1cc(C[S+]([O-])c2nc3cccccc-3n2)on1` (centres unmarked) [Compound 52, 2-(3-Methylisoxazole-5-yl)methylthio-cycloheptoimidazole-S-oxide], for which the inhibition in vivo at 50 mg/kg in experiment [1] worked out at 96.9%.

Consider `c1ccc2nc(SCc3c[nH]cn3)nc-2cc1` [Compound 13, 2-(4-imidazolyl)methylthio-cycloheptoimidazole], for which, in experiment [3], the “Inhibition of ethanol-induced ulcer” value worked out at 88.1%. For the same molecule, the inhibition in vivo at 50 mg/kg in experiment [1] came out at 66.5%.

In turn, `Cc1noc(C)c1C[S+]([O-])c1nc2cccccc-2n1` (centres unmarked) [Compound 53, 2(3,5-Dimethylisoxazole-4-yl)methylthio-cycloheptoimidazole-S-oxide] showed an inhibition at 300 µM in experiment [2] of 45%. For the same molecule, in experiment [1], the inhibition in vivo at 50 mg/kg is 95.7%.

Take `CC(C)c1ccc2nc(SCc3ccccn3)nc-2cc1` [Compound 1, 2-(2-Pyridyl)methylthio-6-isopropyl-cycloheptoimidazole]: in experiment [1], the inhibition in vivo at 50 mg/kg stood at 80.5%.

As for `Nc1nc(CSc2nc3cccccc-3n2)cs1` [Compound 14, 2-(2-Aminothiazole-4-yl)methylthio-cycloheptoimidazole], the “Inhibition of ethanol-induced ulcer” value in experiment [3] turned out to be 90.3%.

With `CC(C)c1ccc2nc(SCc3csc(N)n3)nc-2cc1` [Compound 15, 2-(2-Aminothiazole-4-yl)methylthio-6-isopropyl-cycloheptoimidazole], the “Inhibition of ethanol-induced ulcer” value in experiment [3] was determined as 90.0%. For the same molecule, in experiment [1], the inhibition in vivo at 50 mg/kg worked out at 21%.

Regarding `c1ccc2nc(SCc3cccnc3)nc-2cc1` [Compound 9, 2-(3-Pyridyl)methylthio-cycloheptoimidazole], the “Inhibition of ethanol-induced ulcer” value in experiment [3] was determined as 83.1%.

For `CSc1nnc(CSc2nc3cccccc-3n2)s1` [Compound 8, 2-(2-Methylthio-1,3,4-thiadiazole-5-yl)methylthio-cycloheptoimidazole], the inhibition in vivo at 50 mg/kg in experiment [1] was determined as 20.6%.

With `Nc1cccc(CSc2nc3cccccc-3n2)c1` [Compound 30, 2-(m-Aminophenyl)methylthio-cycloheptoimidazole], the inhibition in vivo at 50 mg/kg in experiment [1] stood at 52.5%.

Turning to `COc1ccc(CSc2nc3cccccc-3n2)cc1` [Compound 26, 2-(p-Methoxyphenyl)methylthio-cycloheptoimidazole], the inhibition in vivo at 50 mg/kg in experiment [1] worked out at 81.6%.
